Measurements as given in patent US20100273801A1, “BETULIN DERIVED COMPOUNDS USEFUL AS ANTIBACTERIAL AGENTS” (Valition teknillinen tutikimuskeskus, priority 2006, published 2010).
Where a name gives a salt, the structure may show the parent alone. Read-outs that look alike come from different tables or passages of the source.

Assays:
[1] = system: Staphylococcus aureus; assay: turbidometric bacterial growth inhibition on a 96 well plate; conditions: for percent growth inhibition S. aureus 4 h / percent growth inhibition S. aureus 24 h: compound 1 mg/ml; for inhibition at 1000 µg/mL / inhibition at 0.1 µg/mL / inhibition at 1 µg/mL: Staphylococcus aureus
Procedure: (§1) The antimicrobial efficiency of betulin derived compounds against Staphylococcus aureus, Staphylococcus epidemidis, Micrococcus luteus and Bacillus subtilis was studied using a turbidometric method on a 96 well plate.
(§2) After juvenescence, suspension cultivation was prepared from the bacterial strains in the Todd-Hewitt broth. The suspension was introduced with a pipette to a 96 well plate, followed by the addition of the compound to be tested (3 parallel tests for each compound). […] Erythromycin was used as the control. Bacterial growth was monitored by measuring the absorbances of the samples at 620 nm at 0, 1, 2, 3, 4 and 24 hours. The sample plate was incubated at 37° C. in a shaker (250 rpm) between the measurements. Effects of the compounds on bacterial growth were evaluated by comparison of the growths of exposed and unexposed samples.

[2] = system: S. epidermidis; assay: as above; conditions: for percent growth inhibition S. epidermidis 4 h / percent growth inhibition S. epidermidis 24 h: compound 1 mg/ml; for inhibition at 1000 µg/mL / inhibition at 0.1 µg/mL / inhibition at 1 µg/mL: Staphylococcus epidermidis
Procedure: as §1, §2

[3] = system: Bacillus subtilis; assay: as above; conditions: for percent growth inhibition B. subtilis 4 h / percent growth inhibition B. subtilis 24 h: compound 1 mg/ml; for inhibition at 1000 µg/mL / inhibition at 0.1 µg/mL / inhibition at 1 µg/mL: Bacillus subtilis
Procedure: as §1, §2

[4] = system: Micrococcus luteus; assay: as above; conditions: for percent growth inhibition M. luteus 4 h / percent growth inhibition M. luteus 24 h: compound 1 mg/ml; for inhibition at 1000 µg/mL / inhibition at 0.1 µg/mL / inhibition at 1 µg/mL: Micrococcus luteus
Procedure: as §1, §2

[5] = system: bacteria; assay: antibacterial activity of compounds derived from betulin (summary statement); format: cell-based; conditions: already at a concentration of 1 μg/ml
Source text: Erythromycin was used as the control.

[6] = 4 h, read-out: percent growth inhibition S. aureus 4 h
[7] = 24 h, read-out: percent growth inhibition S. aureus 24 h
[8] = 4 h, read-out: percent growth inhibition S. epidermidis 4 h
[9] = 24 h, read-out: percent growth inhibition S. epidermidis 24 h
[10] = 4 h, read-out: percent growth inhibition B. subtilis 4 h
[11] = 24 h, read-out: percent growth inhibition B. subtilis 24 h
[12] = 4 h, read-out: percent growth inhibition M. luteus 4 h
[13] = 24 h, read-out: percent growth inhibition M. luteus 24 h

Molecule | percent growth inhibition S. aureus 4 h ([1]; 4 h) [%] | percent growth inhibition S. aureus 24 h ([1]; 24 h) [%] | percent growth inhibition S. epidermidis 4 h ([2]; 4 h) [%] | percent growth inhibition S. epidermidis 24 h ([2]; 24 h) [%] | percent growth inhibition B. subtilis 4 h ([3]; 4 h) [%] | percent growth inhibition B. subtilis 24 h ([3]; 24 h) [%] | percent growth inhibition M. luteus 4 h ([4]; 4 h) [%] | percent growth inhibition M. luteus 24 h ([4]; 24 h) [%] | other results
3,28-C18-dialkenylsuccinic acid diester of betulin [Compound 20] | 0.0 | 0.0 | 0.0 | 0.0 | 0.0 | 9.0 | 0.0 | 12.6 | 
3,28-diisostearic acid ester of betulin [Compound 1] | 2.1 | 0.0 | 0.0 | 0.0 | 0.0 | 8.9 | 8.8 | 7.6 | 
3,28-octanedioic acid ester of betulin [Compound 10] | 0.0 | 0.0 | 0.0 | 1.7 | 0.0 | 2.6 | 0.0 | 2.7 | 
28-C18-alkenylsuccinic acid diester of betulin [Compound 21] | 0.0 | 0.0 | 0.0 | 0.0 | 0.0 | 6.9 | 0.0 | 10.1 | 
C=C(C)[C@@H]1CC[C@]2(C(=O)O)CC[C@]3(C)[C@H](CC[C@@H]4[C@@]5(C)CCC(=O)C(C)(C)[C@@H]5CC[C@]43C)[C@@H]12 [Compound 5, betulonic acid] | 51.6 | 0.0 | 52.7 | 0.0 | 102.3 | 0.0 | 91.3 | 0.0 | antibacterial activity [5]: considerable antibacterial activity
C=C(C)[C@@H]1CC[C@]2(C(=O)NC(CC(=O)OC)C(=O)OC)CC[C@]3(C)C(CCC4[C@@]5(C)CCC(=O)C(C)(C)C5CC[C@]43C)C12 (stereo partly shown) [Compound 8, 28-aspartate dimethylesteramide of betulonic acid] |  |  |  |  |  |  |  |  | inhibition at 1000 µg/mL [1, 6]: 0%; inhibition at 1000 µg/mL [1, 7]: 0%; inhibition at 1000 µg/mL [2, 8]: 0%; inhibition at 1000 µg/mL [2, 9]: 0%; inhibition at 1000 µg/mL [3, 10]: 0%; inhibition at 1000 µg/mL [3, 11]: 5.8%; inhibition at 1000 µg/mL [4, 12]: 0%; inhibition at 1000 µg/mL [4, 13]: 0%
C=C(C)[C@@H]1CC[C@]2(COC(=O)COc3cc(C(C)C)ccc3C)CC[C@]3(C)[C@H](CC[C@@H]4[C@@]5(C)CC[C@H](O)C(C)(C)[C@@H]5CC[C@]43C)[C@@H]12 [Compound 23, 28-carvacrolacetic acid ester of betulin] | 9.9 | 11.1 | 6.8 | 0.0 | 0.7 | 7.3 | 0.0 | 0.1 | 
C=C(C)[C@@H]1CC[C@]2(COS(C)(=O)=O)CC[C@]3(C)[C@H](CC[C@@H]4[C@@]5(C)CC[C@H](OC(C)=O)C(C)(C)[C@@H]5CC[C@]43C)[C@@H]12 [Compound 25, betulin 3-acetate-28 mesylate] | 6.9 | 0.0 | 3.2 | 12.7 | 0.0 | 15.2 | 1.6 | 12.4 | 
C=C(C)[C@@H]1CC[C@]2(COC(=O)c3ccccc3NC(C)=O)CC[C@]3(C)C(CCC4[C@@]5(C)CC[C@H](O)C(C)(C)C5CC[C@]43C)C12 (stereo partly shown) [Compound 29, 28-N-acetylanthranilic acid ester of betulin] | 102.6 | 103.4 | 66.6 | 20.2 | 100.8 | 54.6 | 89.9 | 60.5 | antibacterial activity [5]: considerable antibacterial activity
C=C(C)C1CCC2(COC(=O)C=Cc3ccccc3)CCC3(C)C(CCC4C5(C)CCC(O)C(C)(C)C5CCC43C)C12 (stereo not shown) [Compound 30, 28-cinnamic acid ester of betulin] | 13.0 | 0.0 | 8.5 | 0.0 | 5.9 | 11.1 | 0.0 | 0.0 | 
CC[C@H]1OC(=O)[C@H](C)[C@@H](O[C@H]2C[C@@](C)(OC)[C@@H](O)[C@H](C)O2)[C@H](C)[C@@H](O[C@@H]2O[C@H](C)C[C@H](N(C)C)[C@H]2O)[C@](C)(O)C[C@@H](C)C(=O)[C@H](C)[C@@H](O)[C@]1(C)O [Compound 31, erythromycin, reference compound] |  |  |  |  |  |  |  |  | inhibition at 0.1 µg/mL [1, 6]: 53.6%; inhibition at 1 µg/mL [1, 6]: 79.8%; inhibition at 0.1 µg/mL [1, 7]: 11.7%; inhibition at 1 µg/mL [1, 7]: 72.1%; inhibition at 0.1 µg/mL [2, 8]: 100%; inhibition at 1 µg/mL [2, 8]: 100%; inhibition at 0.1 µg/mL [2, 9]: 90.8%; inhibition at 1 µg/mL [2, 9]: 100%; inhibition at 0.1 µg/mL [3, 10]: 95.6%; inhibition at 1 µg/mL [3, 10]: 100%; inhibition at 0.1 µg/mL [3, 11]: 100%; inhibition at 1 µg/mL [3, 11]: 100%; inhibition at 0.1 µg/mL [4, 12]: 96.1%; inhibition at 1 µg/mL [4, 12]: 100%; inhibition at 0.1 µg/mL [4, 13]: 100%; inhibition at 1 µg/mL [4, 13]: 100%
betulin 3,28-diacetate-18-19-diene [Compound 6] | 0.0 | 0.0 | 0.0 | 0.0 | 0.0 | 3.7 | 0.0 | 1.5 | 
